The text below walks through data of patent publication US10849960B2 (priority 2017, dated 2020).

Format in all cases: cell-based, human
Assay [1] relates to A2780 cells. In words: Chemical inhibition of Jak signaling, cytotoxicity assay. The note with it: inhibitor 10 μM, 2 hours before. The method, then: (§1) FIGS. 7A-7D: Chemical inhibition of Jak signaling. OVCAR-5 cells (FIGS. 7A-7B) or A2780 cells (FIGS. 7C-7D) were treated with either ruxolitinib or tofacitinib for 2 hours at a final concentration of 10 μm before different concentrations of IFNs, IL4-PE or the combination of each were added. Percent viability was measured after 3 days in culture.
(§2) Cell lines were seeded at 10^4 cells/well in a 96-well plate in 100 μL of media and incubated until adherence (4 hr, 37° C., 5% CO2). Serial dilutions of IL4-PE, IFN-α2a, or IFN-γ were added and incubated for three days. IFNs were diluted using serial dilutions in cRPMI to obtain a final concentration of 200 ng/mL of both IFN-α2a or IFN-γ. For ruxolitinib and tofacitinib studies, 10 μM (final concentration) was added to the plates and incubated at 37° C. for 2 hours before IFNs or IL4-PE was added. The media was then removed, and cell viability was determined by crystal violet dye uptake in fixed, live cells. Crystal violet is a triarylmethane dye that binds to ribose type molecules such as DNA in nuclei. The dye staining is directly proportional to the cell biomass. Dye absorbance was measured at 570 nm using a spectrophotometer.

Assay [2] concerns OVCAR-5 cells. Described as above. To be noted: inhibitor 10 μM, 2 hours before, 20/4 and 200/40 ng/mL IFNs/IL4-PE, 3 days. The method, then: as §1, §2
In assay [3] the test system is STAT1. Kind of assay: Western blot for phosphorylated STAT1. To be noted: OVCAR-5 and A2780 cell lines; 20 minutes. The method, then: FIGS. 6A-6B: Western blot analysis of IFN and IL4-PE STAT activation. (FIG. 6A) Western blots for phosphorylated STAT1 in OVCAR-5 and A2780 cells stimulated with IFNα2a, IFNγ, IL4-PE, or all three agents for 20 minutes at the highest concentrations from FIGS. 1A-1B (representative of three separate experiments). (FIG. 6B) Western blots for phosphorylated STAT6 in OVCAR-5 and A2780 cells stimulated with IFNα2a, IFN, IL4-PE, or all three agents for 20 minutes (representative of three separate experiments). P38 protein kinase was used as a loading control.
Cell pellets were snap-frozen and stored at −80° C. Pellets were thawed and lysed with MPER buffer supplemented with protease inhibitors. Cell lysates were centrifuged at 13,000 RPM at 4° C. for 20 minutes to clarify the lysate. The clarified lysate was removed and placed in a new vial. The protein concentration was measured using a NANODROP® Spectrophotometer (LIFE TECHNOLOGIES®, Wilmington, Del.). The lysate was mixed with reducing loading buffer (LIFE TECHNOLOGIES®, Waltham Mass.) and heated at 90° C. for 10 minutes. The samples were allowed to cool and were either used immediately or stored at 4° C. for future analysis. The samples were analyzed using 10% Bis-Tris gels and then transferred to nitrocellulose membranes per the manufacturer's directions. […]

For the molecule `C[C@@H]1CCN(C(=O)CC#N)C[C@@H]1N(C)c1ncnc2[nH]ccc12` [Tofacitinib, tofacitinib], the “effect on IFN signaling / IFN-mediated killing” value in assay [1] was “blocked”. Besides, the “effect on IFN- and IFNs and IL4-PE-mediated cell death / IFN signaling” value in assay [2] is listed as “dose-dependent blocking of IFN signaling”. On to “IFNγ: IFN-γ purchased from INTERMUNE Pharmaceutical Inc.”, for which the STAT1 phosphorylation entry in assay [3] is “induced”.

B1: IFNα: human IFN-α2a, gift of Hoffmann LaRoche (protein)
chain: MARPFAFLMVLVVISYWSTCSLGCDLPQTHNLRNKKILTLLAQMRRLSPLSCLKDRKDFGFPQEKVDAQQIQEAQAIPVLSELTQQILTLFTSKDSSAAWNATLLDSFCTGLHQLLNDLQGCLMQLVGMKELPLTQEDSQLAMKKYFHRITVYLREKKHSPCAWEVVRAEVWRALSSSVNLLARLSEEKE
modifications: Mouse
notes: human IFN-α2a, gift of Hoffmann LaRoche
As for B1, the STAT1 phosphorylation entry in assay [3] was “induced”.
